Experimental data from patent US11319337B2, “3-desoxy derivative and pharmaceutical compositions thereof” (Intercept Pharmaceuticals, Inc., priority 2016, dated 2022).
In brackets after ≈: the same amount, converted by molar mass. Counter-ions that a name gives are not always drawn. Like-named read-outs stand apart in the source and are kept apart here.

Columns and labels:
[1] = biological target: rTGR5 (Rattus norvegicus, UniProt Q80T02); test: TGR5 cross species activity, rTGR5; assay type: cell-based; details: Table 3, cross species
[2] = biological target: T1, Pgp (Homo sapiens, UniProt P08183); test: Pgp-Glo Assay, Pgp ATPase activity; assay type: in vitro ADME; details: read-out: Pgp Substrate EC50
T1 construct: purchased V3591 and V3601
From the text: The impact of Compound 1 on Pgp ATPase activity was examined in Pgp-GloTM Assay (Technical Bulletin; Pgp-GloTM Assay Systems Instructions for Use of Products […] and […]; Revised November 2015) according to the manufacturer's standard protocol.

[3] = biological target: T2, CYP2C9 (Homo sapiens, UniProt P11712); test: CYP450 screening, fluorescent signal, recombinant baculosomes, CYP2C9; assay type: in vitro ADME
T2 construct: purchased Invitrogen

[4] = biological target: T3, CYP2E1 (Homo sapiens, UniProt P05181); test: CYP450 screening, fluorescent signal, recombinant baculosomes, CYP2E1; assay type: in vitro ADME
T3 construct: purchased Invitrogen; host or cells: baculosomes (insect-cell microsomes)
From the text: To evaluate the potential of Compound 1 for drug-drug interactions, the six main CYP450 isoforms (CYP1A2, CYP2C9, CYP2C19, CYP2D6, CYP2E1, CYP3A4) are investigated (Obach, et al., J Pharmacol. Exp. Ther, 2006, 316, 336-348).

[5] = biological target: hERG potassium channel (Homo sapiens, UniProt Q12809); test: biochemical
[6] = biological target: PR (Homo sapiens, UniProt P06401); test: AlphaScreen nuclear receptor profile (agonist mode), PR; assay type: biochemical
[7] = biological target: CAR (Homo sapiens, UniProt Q14994); test: AlphaScreen nuclear receptor profile (agonist mode), CAR; assay type: biochemical
[8] = biological target: VDR (Homo sapiens, UniProt P11473); test: AlphaScreen nuclear receptor profile (agonist mode), VDR; assay type: biochemical
[9] = biological target: rFXR (Rattus norvegicus, UniProt Q62735); test: FXR cross species activity, rFXR; assay type: biochemical; details: Table 2, cross species
[10] = Critical micellar concentration; assay type: physicochemical; details: in […] NaCl water solution
[11] = biological target: T4, CYP3A4 (Homo sapiens, UniProt P08684); test: CYP450 screening, fluorescent signal, recombinant baculosomes, CYP3A4; assay type: in vitro ADME
T4 construct: purchased Invitrogen

[12] = biological target: T5, Human TGR5 (Homo sapiens, UniProt Q8TDU6); test: HTR-FRET intracellular cAMP assay in NCI-H716 cells; assay type: cell-based
T5 construct: Human enteroendocrine NCI-H716 cells constitutively expressing TGR5; endogenous in cells; host or cells: NCI-H716
T5 sequence (Q8TDU6 1-330): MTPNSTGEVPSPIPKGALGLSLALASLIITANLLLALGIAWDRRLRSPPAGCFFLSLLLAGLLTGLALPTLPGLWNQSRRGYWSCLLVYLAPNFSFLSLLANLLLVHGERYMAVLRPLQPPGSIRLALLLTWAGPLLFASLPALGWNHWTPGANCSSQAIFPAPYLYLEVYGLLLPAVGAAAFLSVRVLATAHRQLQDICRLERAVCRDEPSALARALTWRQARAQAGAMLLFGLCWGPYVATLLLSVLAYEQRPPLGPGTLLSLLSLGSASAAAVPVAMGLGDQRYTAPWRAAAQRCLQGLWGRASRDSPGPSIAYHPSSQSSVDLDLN

[13] = biological target: LXRβ (Homo sapiens, UniProt P55055); test: AlphaScreen nuclear receptor profile (agonist mode), LXRβ; assay type: biochemical
[14] = biological target: mTGR5 (Mus musculus, UniProt Q80SS6); test: TGR5 cross species activity, mTGR5; assay type: cell-based; details: Table 3, cross species
[15] = biological target: GR (Homo sapiens, UniProt P04150); test: AlphaScreen nuclear receptor profile (agonist mode), GR; assay type: biochemical
[16] = biological target: T6, Human FXR (Homo sapiens, UniProt Q96RI1); test: AlphaScreen assay, FXR-LBD-GST / SRC-1 LXXLL peptide recruitment; assay type: biochemical
T6 construct: Human FXR-LBD-GST was incubated
T6 sequence (Q96RI1 262-486 limits assumed): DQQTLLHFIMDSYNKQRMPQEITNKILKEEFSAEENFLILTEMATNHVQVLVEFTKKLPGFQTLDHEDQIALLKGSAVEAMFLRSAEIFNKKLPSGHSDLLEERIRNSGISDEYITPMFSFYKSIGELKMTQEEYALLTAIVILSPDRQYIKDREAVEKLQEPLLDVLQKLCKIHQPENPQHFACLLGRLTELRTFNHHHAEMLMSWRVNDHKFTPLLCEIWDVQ

[17] = biological target: PPARα (Homo sapiens, UniProt Q07869); test: AlphaScreen nuclear receptor profile (agonist mode), PPARα; assay type: biochemical
[18] = biological target: T7, CYP2C19 (Homo sapiens, UniProt P33261); test: CYP450 screening, fluorescent signal, recombinant baculosomes, CYP2C19; assay type: in vitro ADME
T7 construct: purchased Invitrogen; host or cells: baculosomes (insect-cell microsomes)

[19] = biological target: PXR (Homo sapiens, UniProt O75469); test: AlphaScreen nuclear receptor profile (agonist mode), PXR; assay type: biochemical
[20] = tested on: HepG2 cells; test: In vitro cytotoxicity, cell viability by ATP content; assay type: cell-based; details: Homo sapiens, HepG2, read-out: ATP Content EC50
[21] = biological target: T8, CYP1A2 (Homo sapiens, UniProt P05177); test: CYP450 screening, fluorescent signal, recombinant baculosomes, CYP1A2; assay type: in vitro ADME
T8 construct: purchased Invitrogen

[22] = biological target: TR; test: AlphaScreen nuclear receptor profile (agonist mode), TR; assay type: biochemical
[23] = biological target: LXRα (Homo sapiens, UniProt Q13133); test: AlphaScreen nuclear receptor profile (agonist mode), LXRα; assay type: biochemical
[24] = tested on: HepG2 cells; test: In vitro cytotoxicity, LDH release; assay type: cell-based; details: Homo sapiens
[25] = biological target: PPARδ (Homo sapiens, UniProt Q03181); test: AlphaScreen nuclear receptor profile (agonist mode), PPARδ; assay type: biochemical
From the text: Using the AlphaScreen assay, the selectivity of Compound 1 against the following nuclear receptors involved in the metabolic pathways can be evaluated: LXRα, LXRβ, PXR, CAR, […], PPARδ, PPARγ, RAR, RARα, VDR, TR, PR, RXRα, GR, and ER.

[26] = biological target: dTGR5 (Canis lupus familiaris, UniProt A0A8I3PZA6); test: TGR5 cross species activity, dTGR5; assay type: cell-based, dog; details: Table 3, cross species
[27] = biological target: mFXR (Mus musculus, UniProt Q60641); test: FXR cross species activity, mFXR; assay type: biochemical; details: Table 2, cross species
[28] = biological target: RXRα (Homo sapiens, UniProt P19793); test: AlphaScreen nuclear receptor profile (agonist mode), RXRα; assay type: biochemical
[29] = biological target: RAR; test: AlphaScreen nuclear receptor profile (agonist mode), RAR; assay type: biochemical
[30] = biological target: PPARγ (Homo sapiens, UniProt P37231); test: AlphaScreen nuclear receptor profile (agonist mode), PPARγ; assay type: biochemical
[31] = 1-octanol-water partition coefficient (LogPA-); assay type: physicochemical; details: bile acids as ionized species
Method: (§1) Physiochemical properties of Compound 1 such as water solubility, critical micellar concentration, surface tension, and LogPA were determined using methods known in the art.

[32] = biological target: ER; test: AlphaScreen nuclear receptor profile (agonist mode), ER; assay type: biochemical
[33] = biological target: T9, CYP2D6 (Homo sapiens, UniProt P10635); test: CYP450 screening, fluorescent signal, recombinant baculosomes, CYP2D6; assay type: in vitro ADME
T9 construct: purchased Invitrogen; host or cells: baculosomes (insect-cell microsomes)

[34] = biological target: T10, dFXR (Canis lupus familiaris, UniProt A0A8I3N2S7); test: FXR cross species activity, dFXR; assay type: biochemical, dog; details: Table 2, cross species
T10 construct: printed for the human protein only; fused on or other part: GST tag, printed only for the human construct

[35] = Water solubility; assay type: physicochemical; details: BA as protonated species, hs = highly soluble, read-out: Ws (water solubility)
Method: as §1

[36] = Surface tension at CMC; assay type: physicochemical; details: in […] NaCl water solution; in mN/m (unit assumed)
Method: as §1

CC[C@H]1[C@@H](O)[C@@H]2[C@H]([C@@H](O)C[C@]3(C)[C@@H]([C@H](C)CCC(=O)O)CC[C@@H]23)[C@@]2(C)CCCC[C@@H]12 [Compound 1, 7α,11β-dihydroxy-6α-ethyl-5β-cholan-24-oic acid]
EC50 [1]: > 200 µM | EC50 [2]: > 300 µM | IC50 [3]: > 10 µM | IC50 [4]: > 10 µM | IC50 [5]: > 100 µM | EC50 [6]: > 300 µM | EC50 [7]: > 300 µM | EC50 [8]: > 300 µM | EC50 [9]: 0.49 ± 0.01 µM | CMC (Critical Micellar Concentration) [10]: 2.0 mM | IC50 ([11]; Blue Substrate, read-out: CYP3A4 (Blue Substrate) IC50): > 10 µM | IC50 ([11]; Green Substrate, read-out: CYP3A4 (Green Substrate) IC50): > 10 µM | selectivity for FXR over TGR5, in words [12]: high selectivity for FXR over TGR5 | EC50 ([12]; Table 1, intracellular cAMP, NCI-H716 cells, quantity not named in head (EC50 per Table 3), read-out: HTR-FRET (cAMP) Human TGR5 (NCI-H716 cells)): > 200 µM | EC50 ([12]; Table 3, cross species, read-out: hTGR5 EC50): > 200 µM | EC50 [13]: > 300 µM | EC50 [14]: > 200 µM | EC50 [15]: > 300 µM | FXR activation, in words [16]: potent and selective activator | EC50 ([16]; Table 1, Human FXR-LBD-GST with biotinylated LXXLL SRC-1 peptide, quantity not named in head (EC50 per Table 2)): 0.14 ± 0.04 µM | FXR activation, in words ([16]; listed as compound of this invention): potent FXR agonists | EC50 [17]: > 300 µM | IC50 [18]: > 10 µM | EC50 [19]: > 300 µM | EC50 [20]: > 300 µM | IC50 [21]: > 10 µM | EC50 [22]: > 300 µM | EC50 [23]: > 300 µM | EC50 [24]: > 300 µM | EC50 [25]: > 300 µM | EC50 [26]: > 200 µM | EC50 [27]: 0.6 ± 0.02 µM | EC50 [28]: > 300 µM | EC50 [29]: > 300 µM | EC50 [30]: > 300 µM | LogPA- (1-octanol-water partition coefficient) [31]: 1.8 | EC50 [32]: > 300 µM | IC50 [33]: > 10 µM | EC50 [34]: 1.65 ± 0.05 µM

CC[C@H]1[C@@H](O)[C@@H]2[C@H](CC[C@]3(C)[C@@H]([C@H](C)CCC(=O)O)CC[C@@H]23)[C@@]2(C)CC[C@@H](O)C[C@@H]12 [Compound A, 6α-ethyl-3α,7α-dihydroxy-5β-cholan-24-oic acid]
solubility [35]: 9 mM (≈ 3.79 mg/mL) | CMC (Critical Micellar Concentration) [10]: 2.9 mM | STCMC (Surface Tension at CMC) [36]: 43.2-48.8 | LogPA- (1-octanol-water partition coefficient) [31]: 2.5

CCC1C(O)C2C3CCC(C(C)CCOS(=O)(=O)O)C3(C)CCC2C2(C)CCC(O)CC12 (stereo not drawn) [Compound B, 6α-ethyl-3α,7α,23-trihydroxy-24-nor-5β-cholan-23-sulfate sodium salt]
LogPA- (1-octanol-water partition coefficient) [31]: 2.0

CC[C@H]1[C@@H](O)[C@@H]2[C@H](C[C@H](O)[C@]3(C)[C@@H]([C@H](C)C[C@H](C)C(=O)O)CC[C@@H]23)[C@@]2(C)CC[C@@H](O)C[C@@H]12 [Compound C, 6α-ethyl-23(S)-methyl-3α,7α,12α trihydroxy-5β-cholan-24-oic acid]
solubility [35]: 99 mM (≈ 44.6 mg/mL) | CMC (Critical Micellar Concentration) [10]: 2 mM | STCMC (Surface Tension at CMC) [36]: 50.1 | LogPA- (1-octanol-water partition coefficient) [31]: 1.4

CC[C@H]1[C@@H](O)C2C3CC[C@H]([C@H](C)C[C@H](C)C(=O)O)[C@@]3(C)CCC2[C@@]2(C)CC[C@@H](O)C[C@@H]12 (stereo partly drawn) [Compound D, 6α-ethyl-23(R)-methyl chenodeoxycholic acid]
solubility [35]: 15 mM (≈ 6.52 mg/mL) | LogPA- (1-octanol-water partition coefficient) [31]: 2.9

CC[C@H]1[C@@H](O)C2C3C[C@H](O)[C@H]([C@H](C)CCC(=O)O)[C@@]3(C)CCC2[C@@]2(C)CC[C@@H](O)C[C@@H]12 (some centres unmarked) [Compound E]
solubility [35]: 120 mM (≈ 52.4 mg/mL) | CMC (Critical Micellar Concentration) [10]: 5.9 mM | STCMC (Surface Tension at CMC) [36]: 52.4 | LogPA- (1-octanol-water partition coefficient) [31]: 1.6

CC[C@H]1[C@@H](O)C2C3CC[C@H]([C@H](C)CCC(=O)O)[C@@]3(C)C[C@H](O)C2[C@@]2(C)CC[C@@H](O)C[C@@H]12 (stereo partly drawn) [Compound F, 3α,7α,11β-dihydroxy-6α-ethyl-5β-cholan-24-oic acid]
solubility [35]: 143 to 150 mM (≈ 62.4 to 65.5 mg/mL) | LogPA- (1-octanol-water partition coefficient) [31]: 0.8
